In patent US11298333B1, “Methods of reducing the risk of cardiovascular events in a subject” (Amarin Pharmaceuticals Ireland Limited, priority 2018, dated 2022):

Test system: statin-treated patients with a history of atherosclerosis or diabetes
Experiment: REDUCE-IT Example 2: recurrent and total ischemic events (Andersen-Gill, Wei-Lin-Weissfeld)
Type: in vivo, human
Description: The following study was a multi-center, placebo-controlled clinical trial the details of which are described above in Example 1, the REDUCE-IT design. […] Randomization was stratified by cardiovascular risk cohort (i.e., secondary or primary prevention), use of ezetimibe, and by geographic region.
The primary outcome for the study was total recurrent events consisting of the composite of cardiovascular death, nonfatal myocardial infarction, nonfatal stroke, coronary revascularization, or hospitalization for unstable angina. Recurrent event analyses were also performed for the key secondary endpoint, a composite of cardiovascular death, non-fatal myocardial infarction, or non-fatal stroke. For each of these composite endpoints, the effects of icosapent ethyl in the secondary and primary prevention strata were examined separately.
Demographic and baseline disease characteristics are presented using frequencies and percentages for categorical variables and medians with interquartile ranges for continuous variables. Between treatment group comparisons were derived using the chi-square test for categorical variables and Wilcoxon rank test for continuous variables. All clinical endpoint events used in the efficacy analyses were adjudicated by an independent Clinical Endpoint Committee (CEC) who were blinded to the treatment assignment. Since the primary efficacy endpoint was the time from randomization to the first occurrence of any component of the composite endpoint, and recurrence of such events within each patient is possible, a pre-specified analysis using a Cox proportional-hazard with the counting-process formulation of Andersen and Gill was performed to model the first and all recurrent cardiovascular events. Hazard ratios (HR) and corresponding 95% confidence intervals (CI) are reported from this model. In addition, as a marginal model and an extension of survival models based on the Cox proportional hazard model, the modified Wei-Lin-Weissfeld (WLW) method for analysis of recurrent events in the presence of deaths was carried out as a supportive analysis. In addition, as pre-specified, a recurrent event analysis using the Andersen-Gill and Wei-Lin-Weissfeld methods were carried out for the individual primary event components other than CV death. Though not pre-specified, additional recurrent event analyses were performed for the key secondary endpoint, which is a composite of CV death, non-fatal MI, or non-fatal stroke, and for the primary endpoint and the key secondary endpoint in the primary and secondary prevention strata to explore further the consistency of clinical benefit of icosapent ethyl. In subgroup analyses of the two cardiovascular risk strata (i.e., primary and secondary prevention), site-level discrepancies in cardiovascular risk group assignment occurring at entry and detected during the study (1.8%) were adjusted to conform with documented medical history data prior to randomization. All efficacy analyses were performed according to the intention-to-treat principle. All tests were based on a 2-sided nominal significance level of 5% with no adjustments for multiple comparisons.

[1] = without adjusting for stratification differences
[2] = without adjustment for stratification differences

## CC/C=C\C/C=C\C/C=C\C/C=C\C/C=C\CCCC(=O)OCC [Icosapent Ethyl, eicosapentaenoic acid ethyl ester]
Wei-Lin-Weissfeld model
  First occurrence of primary composite endpoint: HR vs placebo: 0.75
  Second occurrence of primary composite endpoint: HR vs placebo: 0.72
Adjusted stratification
  Total key secondary endpoints: HR, primary prevention stratum: 0.71
  Total key secondary endpoints: HR, secondary prevention stratum: 0.70
  Total primary endpoint events: HR, primary prevention stratum: 0.79
  Total primary endpoint events: HR, secondary prevention stratum: 0.66
In vivo
  Cardiovascular deaths prevented per 100 patients treated for five years: 1
  Coronary revascularizations prevented per 100 patients treated for five years: 8
  Episodes of unstable angina prevented per 100 patients treated for five years: 2
  Myocardial infarctions prevented per 100 patients treated for five years: 4
  Relative risk reduction in total events for the primary composite efficacy outcome: 32%
  Strokes prevented per 100 patients treated for five years: 1
overall
  Total key secondary endpoints: HR vs placebo: 0.71
[1]
  Total primary endpoint events: HR, primary prevention stratum: 0.86
  Total primary endpoint events: HR, secondary prevention stratum: 0.65
[2]
  Total key secondary endpoint events: HR, primary prevention: 0.78
  Total key secondary endpoint events: HR, secondary prevention stratum: 0.69
